Paper PMC10221159, “Investigation of N-Acetyltransferase 2-Mediated Drug Interactions of Amifampridine: In Vitro and In Vivo Evidence of Drug Interactions with Acetaminophen” (Pharmaceutics, 2023)
Read-outs that look alike come from different tables or passages of the source.

Legend:
[1] = humans, cited from earlier work
[2] = Tissue distribution of amifampridine and 3-N-acetylamifampridine in rats; type: in vivo, rat; settings: for Kp at 1 h: rat, 60 min after oral amifampridine 2 mg/kg
Method: To investigate the effects of acetaminophen on the tissue distribution of amifampridine and 3-N-acetylamifampridine, rats were sacrificed at 60 min after administration of amifampridine in control and acetaminophen-treated rats (n = 6) as mentioned above, and the tissues, including liver, kidney, heart, lungs, spleen, brain, and muscle tissues, were obtained. Tissue samples were homogenized using a Wheaton^TM Dounce tissue grinder (Wheaton Millipore, Billerica, MA, USA) after adding a three-fold volume of PBS. An amount of 100 μL of tissue homogenates was transferred to the tube and 200 μL of IS solution was then added and vortexed followed by centrifugation at 14,000 rpm for 15 min at 4 °C. The supernatants were transferred to LC vials for quantification. For muscle samples, the supernatant was concentrated using a desiccator and reconstituted with the mobile phase solvent.

[3] = Urinary excretion of amifampridine and 3-N-acetylamifampridine in rats; type: in vivo, rat; settings: Sprague Dawley, rat, urine, oral, 2 mg/kg, 24 h, oral amifampridine 2 mg/kg, read-out: total urinary recovery
Method: Urine samples were collected at intervals of 0–4, 4–8, and 8–24 h after the administration of amifampridine to control and acetaminophen-treated rats (n = 6), as described above, and were diluted 500-fold with potassium phosphate buffer. An amount of 200 μL of IS was then added to the samples and vortexed for a minute. After centrifugation at 14,000 rpm for 15 min at 4 °C, the supernatant was transferred into vials for quantification of amifampridine and 3-N-acetylamifampridine.

[4] = In vitro metabolic profile of amifampridine (3-N-acetylamifampridine formation) in rat liver S9 fraction; type: in vitro ADME
Method: An in vitro metabolic study was performed to investigate the metabolic profile of amifampridine in the rat liver S9 fraction. The reaction mixture, which consisted of rat liver S9 fraction (2 mg/mL protein) and 2 mM acetyl-CoA in potassium phosphate buffer, was prepared and incubated for 5 min in a thermal mixer (200 oscillations/min) at 37 °C. Then, amifampridine was added to the reaction mixture to make the final concentrations of amifampridine at 2, 10, 20, 50, 100, 500, and 1000 μM. After further incubation for 15 min at 37 °C, 50 μL of the sample was transferred into the tube containing 200 μL of ice-cold potassium phosphate buffer and mixed by vortexing. An amount of 50 μL of the mixture was then transferred into the tube containing 100 μL of internal standard (IS; 5 ng/mL ondansetron in acetonitrile), followed by vortexing and centrifugation at 14,000 rpm for 15 min at 4 °C. The supernatant was transferred into vials for HPLC-tandem mass spectrometry (MS/MS) analysis and the concentration of 3-N-acetylamifampridine was determined.
The Vm and Km values, Michaelis–Menten parameters, were determined by linear regression using Lineweaver–Burk equation, as follows: 1/v=Km/Vmax×1/S+1/Vmax where v is the rate of amifampridine metabolism to 3-N-acetylamifampridine in the S9 fraction, [S] is the concentration of amifampridine, Vmax is the maximum metabolic rate of amifampridine, and Km is the concentration of amifampridine at half Vmax. The intrinsic clearance (CLint) was calculated using Vmax/Km, with the assumption that Km is much greater than [S], as is usual in clinical practice.

[5] = set-up: method as in PMID 25692017; settings: NAT2 slow vs fast acetylators; cited from earlier work
[6] = 60 min, acetaminophen-treated vs control rats

- increase of concentration in liver [2, 6]: 270.26%
- increase of concentration in muscle [2, 6]: 413.11%
- increase of concentration in spleen [2, 6]: 265.17%
- Kp at 1 h ([2]; Sprague Dawley, brain, acetaminophen 100 mg/kg, read-out: Tissue partition coefficient (Kp), Brain): 0.1
- Kp at 1 h ([2]; Sprague Dawley, brain, control, read-out: Tissue partition coefficient (Kp), Brain): 0.1 ± 0.3
- Kp at 1 h ([2]; Sprague Dawley, heart, acetaminophen 100 mg/kg, read-out: Tissue partition coefficient (Kp), Heart): 0.7 ± 0.5
- Kp at 1 h ([2]; Sprague Dawley, heart, control, read-out: Tissue partition coefficient (Kp), Heart): 0.6 ± 0.5
- Kp at 1 h ([2]; Sprague Dawley, lungs, acetaminophen 100 mg/kg, read-out: Tissue partition coefficient (Kp), Lungs): 2.2 ± 2.8
- Kp at 1 h ([2]; Sprague Dawley, lungs, control, read-out: Tissue partition coefficient (Kp), Lungs): 1.7 ± 1.1
- Kp at 1 h ([2]; Sprague Dawley, spleen, acetaminophen 100 mg/kg, read-out: Tissue partition coefficient (Kp), Spleen): 1.6 ± 1
- Kp at 1 h ([2]; Sprague Dawley, spleen, control, read-out: Tissue partition coefficient (Kp), Spleen): 1 ± 0.5
- decrease of Kp in the kidneys ([2]; acetaminophen-treated vs control rats): 51%
- Kp at 1 h ([2]; male, Sprague-Dawley, kidney, acetaminophen 100 mg/kg, read-out: Tissue partition coefficient (Kp), Kidney): 3.6 ± 0.4
- Kp at 1 h ([2]; male, Sprague-Dawley, kidney, control, read-out: Tissue partition coefficient (Kp), Kidney): 7.4 ± 2.7
- Kp at 1 h ([2]; male, Sprague-Dawley, liver, acetaminophen 100 mg/kg, read-out: Tissue partition coefficient (Kp), Liver): 3 ± 1.5
- Kp at 1 h ([2]; male, Sprague-Dawley, liver, control, read-out: Tissue partition coefficient (Kp), Liver): 3.8 ± 2.6
- Kp at 1 h ([2]; male, Sprague-Dawley, muscle, acetaminophen 100 mg/kg, read-out: Tissue partition coefficient (Kp), Muscle): 0.4 ± 0.2
- Kp at 1 h ([2]; male, Sprague-Dawley, muscle, control, read-out: Tissue partition coefficient (Kp), Muscle): 0.5 ± 0.4
- dose excreted ([3]; acetaminophen-treated rats): 18.9%
- dose excreted ([3]; control rats): 6.7%
- Vmax ([4]; 3-N-acetylamifampridine formation, rat liver S9, Lineweaver–Burk plot): 5130 ± 1100 pmol/min/mg protein
- intrinsic clearance in liver S9 fraction ([4]; liver S9 fraction, Vmax/Km, rat liver S9, read-out: CLint): 78 ± 11 µL/min/mg
- Km at 15 min ([4]; rat liver S9 fraction, 3-N-acetylamifampridine formation, rat liver S9 (2 mg/mL protein), Lineweaver–Burk plot): 66.6 ± 24.2 µM
SMILES: Nc1ccncc1N [amifampridine]
- dose excreted via the urine within 24 h ([1]; after administration of amifampridine): 19%
- dose excreted via the urine within 24 h as amifampridine plus 3-N-acetylamifampridine [1]: More than 90%
- elimination half-life [1]: approximately 2.5 h
- AUC higher in slow acetylators than in fast acetylators [5]: 5–10 fold
- Cmax higher in slow acetylators than in fast acetylators [5]: approximately 3.5 fold
- higher frequency of drug-related treatment-emergent adverse events in slow than fast acetylators [5]: more than 10 fold
